The text below walks through data of patent US8569344B2, “N-piperidinyl acetamide derivatives as calcium channel blockers” (Zalicus Pharmaceuticals Ltd., priority 2008, dated 2013).

The target of test [1] is T1, human α1H T-type channels (Homo sapiens, UniProt O95180).
T1 construct: expressed in transfected cells; host or cells: HEK 293
Description: T-type calcium channel block, whole cell patch clamp in HEK cells (α1H). The conditions noted are these: HEK cells, patch clamp, mainly non-inactivated protocol; values above 10 μM shown as 10 μM; read-out: T-type Calcium Channel Block α1H IC50. The class given is cell-based. On the technique in general: The patch-clamp technique gives a direct electrical read-out from membranes.

For test [2], the target named is T2, human α1G T-type channels (Homo sapiens, UniProt O43497).
T2 construct: expressed in transfected cells; host or cells: HEK 293
T2 sequence (O43497 whole entry): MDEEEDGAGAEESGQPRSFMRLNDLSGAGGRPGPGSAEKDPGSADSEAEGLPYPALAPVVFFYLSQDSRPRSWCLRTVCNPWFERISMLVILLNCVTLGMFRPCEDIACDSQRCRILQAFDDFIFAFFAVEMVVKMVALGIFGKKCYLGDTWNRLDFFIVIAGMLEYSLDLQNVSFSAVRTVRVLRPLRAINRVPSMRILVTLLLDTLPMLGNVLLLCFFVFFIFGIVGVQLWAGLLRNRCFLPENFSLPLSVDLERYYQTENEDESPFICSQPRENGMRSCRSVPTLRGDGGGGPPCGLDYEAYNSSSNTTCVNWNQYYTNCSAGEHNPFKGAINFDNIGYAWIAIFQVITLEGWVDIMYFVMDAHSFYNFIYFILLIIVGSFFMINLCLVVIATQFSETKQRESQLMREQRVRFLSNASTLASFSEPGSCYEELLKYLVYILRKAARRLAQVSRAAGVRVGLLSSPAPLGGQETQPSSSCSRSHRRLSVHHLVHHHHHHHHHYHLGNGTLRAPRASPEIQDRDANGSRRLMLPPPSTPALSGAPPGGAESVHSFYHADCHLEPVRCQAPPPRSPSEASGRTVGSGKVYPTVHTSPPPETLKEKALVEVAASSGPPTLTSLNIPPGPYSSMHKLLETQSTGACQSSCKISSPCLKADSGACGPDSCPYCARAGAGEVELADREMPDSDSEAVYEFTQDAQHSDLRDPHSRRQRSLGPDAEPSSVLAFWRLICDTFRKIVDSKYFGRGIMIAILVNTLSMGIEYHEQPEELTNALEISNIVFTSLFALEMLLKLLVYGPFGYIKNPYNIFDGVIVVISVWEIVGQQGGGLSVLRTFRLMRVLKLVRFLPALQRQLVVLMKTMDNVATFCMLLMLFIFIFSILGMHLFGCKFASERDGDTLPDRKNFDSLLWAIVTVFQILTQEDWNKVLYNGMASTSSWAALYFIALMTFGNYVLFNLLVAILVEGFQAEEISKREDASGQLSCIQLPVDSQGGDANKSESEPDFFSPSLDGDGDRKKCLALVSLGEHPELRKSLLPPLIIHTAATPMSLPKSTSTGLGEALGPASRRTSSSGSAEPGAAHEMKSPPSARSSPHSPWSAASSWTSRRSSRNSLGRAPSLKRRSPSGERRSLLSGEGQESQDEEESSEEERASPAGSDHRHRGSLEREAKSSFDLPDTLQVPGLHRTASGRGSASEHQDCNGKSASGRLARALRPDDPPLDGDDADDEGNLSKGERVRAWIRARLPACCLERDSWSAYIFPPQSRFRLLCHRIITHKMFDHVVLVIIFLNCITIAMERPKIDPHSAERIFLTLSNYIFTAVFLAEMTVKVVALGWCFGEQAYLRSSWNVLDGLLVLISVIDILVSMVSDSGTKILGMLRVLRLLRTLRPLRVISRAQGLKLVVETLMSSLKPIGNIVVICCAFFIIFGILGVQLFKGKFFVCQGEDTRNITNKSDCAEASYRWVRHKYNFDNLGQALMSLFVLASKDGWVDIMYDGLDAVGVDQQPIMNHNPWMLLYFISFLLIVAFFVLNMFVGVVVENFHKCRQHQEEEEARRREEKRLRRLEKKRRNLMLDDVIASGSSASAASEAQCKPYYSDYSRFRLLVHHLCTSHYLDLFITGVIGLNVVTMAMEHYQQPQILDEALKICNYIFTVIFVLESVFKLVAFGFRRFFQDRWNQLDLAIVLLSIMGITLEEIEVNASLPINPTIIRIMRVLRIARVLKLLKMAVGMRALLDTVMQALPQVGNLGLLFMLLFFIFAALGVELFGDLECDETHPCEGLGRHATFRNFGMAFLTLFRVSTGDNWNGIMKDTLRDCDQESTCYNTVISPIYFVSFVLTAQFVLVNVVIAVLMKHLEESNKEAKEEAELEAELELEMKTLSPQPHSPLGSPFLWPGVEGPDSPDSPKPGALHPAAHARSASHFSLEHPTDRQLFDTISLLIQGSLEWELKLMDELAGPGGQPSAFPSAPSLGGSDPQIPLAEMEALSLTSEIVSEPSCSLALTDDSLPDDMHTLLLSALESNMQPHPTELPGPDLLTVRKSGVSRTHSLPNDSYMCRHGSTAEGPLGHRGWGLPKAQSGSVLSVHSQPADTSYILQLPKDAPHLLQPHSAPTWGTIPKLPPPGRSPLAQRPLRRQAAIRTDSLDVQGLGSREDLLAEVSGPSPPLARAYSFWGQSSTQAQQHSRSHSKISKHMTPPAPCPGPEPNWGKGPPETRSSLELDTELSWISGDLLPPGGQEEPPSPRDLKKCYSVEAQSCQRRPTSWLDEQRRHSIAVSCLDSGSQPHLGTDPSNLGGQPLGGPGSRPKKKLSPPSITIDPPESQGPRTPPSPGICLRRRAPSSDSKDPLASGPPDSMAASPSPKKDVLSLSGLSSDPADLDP
The test can be described thus: T-type calcium channel block, whole cell patch clamp in HEK cells (α1G). The class given is cell-based. The following applies: HEK cells, patch clamp, mainly non-inactivated protocol; values above 10 μM shown as 10 μM, below 0.30 μM shown as 0.30 μM; read-out: T-type Calcium Channel Block α1G IC50.

T1 sequence (O95180 whole entry): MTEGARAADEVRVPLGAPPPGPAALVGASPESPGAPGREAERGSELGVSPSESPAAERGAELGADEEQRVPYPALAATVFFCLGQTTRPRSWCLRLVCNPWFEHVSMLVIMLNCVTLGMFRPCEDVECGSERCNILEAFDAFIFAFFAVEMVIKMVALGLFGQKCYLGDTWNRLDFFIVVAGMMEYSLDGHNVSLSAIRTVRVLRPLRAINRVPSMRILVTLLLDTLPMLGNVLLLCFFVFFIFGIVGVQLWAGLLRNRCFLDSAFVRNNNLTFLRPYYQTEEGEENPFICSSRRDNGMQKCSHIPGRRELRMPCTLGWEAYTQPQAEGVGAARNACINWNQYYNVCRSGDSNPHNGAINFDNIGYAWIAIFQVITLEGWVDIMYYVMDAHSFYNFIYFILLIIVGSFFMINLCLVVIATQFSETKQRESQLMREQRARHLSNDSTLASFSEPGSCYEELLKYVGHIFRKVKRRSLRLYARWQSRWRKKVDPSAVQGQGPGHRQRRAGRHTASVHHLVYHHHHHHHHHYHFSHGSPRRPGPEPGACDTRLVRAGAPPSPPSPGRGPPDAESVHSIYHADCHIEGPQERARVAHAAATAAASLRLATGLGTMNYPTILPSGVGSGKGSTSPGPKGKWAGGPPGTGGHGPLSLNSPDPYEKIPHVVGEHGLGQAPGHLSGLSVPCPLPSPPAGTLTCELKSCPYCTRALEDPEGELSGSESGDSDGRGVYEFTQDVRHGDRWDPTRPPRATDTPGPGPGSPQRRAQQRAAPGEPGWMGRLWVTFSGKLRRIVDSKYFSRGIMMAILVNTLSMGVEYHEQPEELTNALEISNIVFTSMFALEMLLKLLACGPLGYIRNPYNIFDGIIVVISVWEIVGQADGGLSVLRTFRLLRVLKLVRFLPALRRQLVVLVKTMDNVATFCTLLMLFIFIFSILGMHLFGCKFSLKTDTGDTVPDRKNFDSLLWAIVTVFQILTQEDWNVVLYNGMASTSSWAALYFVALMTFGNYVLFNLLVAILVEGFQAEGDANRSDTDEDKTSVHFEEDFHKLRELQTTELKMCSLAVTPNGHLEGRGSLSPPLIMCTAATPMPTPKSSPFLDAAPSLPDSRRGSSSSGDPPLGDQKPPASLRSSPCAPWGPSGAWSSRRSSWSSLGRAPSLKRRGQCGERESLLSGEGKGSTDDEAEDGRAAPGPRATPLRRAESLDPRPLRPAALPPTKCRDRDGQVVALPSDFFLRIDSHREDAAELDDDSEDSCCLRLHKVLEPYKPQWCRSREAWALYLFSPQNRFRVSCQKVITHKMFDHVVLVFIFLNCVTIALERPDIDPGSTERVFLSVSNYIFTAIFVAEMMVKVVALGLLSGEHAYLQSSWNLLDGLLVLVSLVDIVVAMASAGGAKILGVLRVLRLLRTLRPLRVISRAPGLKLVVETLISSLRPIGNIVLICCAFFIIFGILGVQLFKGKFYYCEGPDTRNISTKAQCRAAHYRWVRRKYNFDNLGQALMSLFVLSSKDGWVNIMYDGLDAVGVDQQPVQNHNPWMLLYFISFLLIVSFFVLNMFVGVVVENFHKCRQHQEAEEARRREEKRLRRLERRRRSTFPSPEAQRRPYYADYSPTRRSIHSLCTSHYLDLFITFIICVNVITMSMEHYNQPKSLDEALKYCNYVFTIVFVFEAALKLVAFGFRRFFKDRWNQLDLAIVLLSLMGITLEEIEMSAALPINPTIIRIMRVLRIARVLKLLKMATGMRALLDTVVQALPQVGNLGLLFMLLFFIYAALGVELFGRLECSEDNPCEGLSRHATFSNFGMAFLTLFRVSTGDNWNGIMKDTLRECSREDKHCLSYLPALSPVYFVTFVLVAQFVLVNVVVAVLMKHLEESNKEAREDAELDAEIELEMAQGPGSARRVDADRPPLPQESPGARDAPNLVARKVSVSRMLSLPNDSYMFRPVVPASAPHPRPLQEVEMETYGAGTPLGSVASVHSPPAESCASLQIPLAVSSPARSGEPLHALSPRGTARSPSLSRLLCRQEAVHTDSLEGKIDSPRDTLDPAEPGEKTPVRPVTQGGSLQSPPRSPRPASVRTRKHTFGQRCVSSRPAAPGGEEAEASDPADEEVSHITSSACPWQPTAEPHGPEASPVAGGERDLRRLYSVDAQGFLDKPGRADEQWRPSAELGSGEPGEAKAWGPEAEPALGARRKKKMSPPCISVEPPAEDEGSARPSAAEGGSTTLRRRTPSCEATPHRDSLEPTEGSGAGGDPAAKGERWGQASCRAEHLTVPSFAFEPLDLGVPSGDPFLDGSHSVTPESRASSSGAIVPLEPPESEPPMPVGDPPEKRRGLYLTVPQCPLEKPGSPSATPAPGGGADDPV

On to `CN(CCN1CCC(CNC(=O)c2cc(F)cc(C(F)(F)F)c2)CC1)C(=O)C1(C(F)(F)F)CCCC1` [Compound 522, 3-fluoro-N-((1-(2-(N-methyl-1-(trifluoromethyl)cyclopentanecarbox-amido)ethyl)piperidin-4-yl)methyl)-5-(trifluoromethyl)benzamide], for which the values for the IC50 in test [1] and in test [2] were 140 nM and under 300 nM, respectively.
For `COc1ccc(C(=O)NCC2CCN(CCNS(=O)(=O)C3CC3)CC2)cc1OC` [Compound 324, N-((1-(2-(cyclopropanesulfonamido)ethyl)piperidin-4-yl)methyl)-3,4-dimethoxybenzamide] the same measures were over 10000 nM and over 10000 nM.
In the case of `O=C(CN1CCC(CNC(=O)c2cccc(OC(F)(F)F)c2)CC1)NC1CCCC1` [Compound 536, N-((1-(2-(cyclopentylamino)-2-oxoethyl)piperidin-4-yl)methyl)-3-(trifluoromethoxy)benzamide], the results for the IC50 in test [1] and in test [2] were 120 nM and under 300 nM, respectively.
On to `CC(C)S(=O)(=O)NCCN1CCC(CNC(=O)c2cccc(Cl)c2)CC1` [Compound 236, 3-chloro-N-((1-(2-(1-methylethylsulfonamido)ethyl)piperidin-4-yl)methyl)benzamide], for which the IC50 (in general, the concentration needed to halve the response being measured) in test [1] is 1720 nM; in test [2], 860 nM.
In the case of `CC(C)(C#N)NC(=O)CN1CCC(CNC(=O)c2cc(C(F)(F)F)cc(C(F)(F)F)c2)CC1` [Compound 304, N-((1-(2-(2-cyanopropan-2-ylamino)-2-oxoethyl)piperidin-4-yl)methyl)-3,5-bis(trifluoromethyl)benzamide], the IC50 in test [1] is 370 nM; in test [2], under 300 nM.
On to `CC(C)(C)c1ccc(C(=O)NCC2CCN(CCNS(=O)(=O)C3CC3)CC2)cc1` [Compound 238, 4-tert-butyl-N-((1-(2-(cyclopropanesulfonamido)ethyl)piperidin-4-yl)methyl)benzamide], for which the IC50 in test [1] and in test [2] was over 10000 nM throughout.
On to `CCC(C)(C)NC(=O)CN1CCC(CNC(=O)c2cc(C(F)(F)F)cc(C(F)(F)F)c2)CC1` [Compound 346, N-((1-(2-oxo-2-(tert-pentylamino)ethyl)piperidin-4-yl)methyl)-3,5-bis(trifluoromethyl) benzamide], for which the IC50 in test [1] is 50 nM; in test [2], under 300 nM.
Consider `CC(C)(C)OC(=O)NCCN1CCC(CNC(=O)c2cccc(OC(F)(F)F)c2)CC1` [Compound 44, tert-butyl 2-(4-((3-(trifluoromethoxy)benzamido)methyl)piperidin-1-yl)ethylcarbamate], for which the IC50 in test [1] was found to be 320 nM; in test [2] it was 620 nM.
In the same order, the values of `Cc1cc(F)cc(C(=O)NCC2CCN(CC(=O)N3CCC[C@H]3C(F)(F)F)CC2)c1` [Compound 464, (S)-3-fluoro-5-methyl-N-((1-(2-oxo-2-(2-(trifluoromethyl)pyrrolidin-1-yl)ethyl)piperidin-4-yl)methyl)benzamide] are 140 nM and under 300 nM.
In the same order, the values of `CC(C)(C)Oc1cccc(C(=O)NCC2CCN(CCNS(=O)(=O)C3CC3)CC2)c1` [Compound 229, 3-tert-butoxy-N-((1-(2-(cyclopropanesulfonamido)ethyl)piperidin-4-yl)methyl)benzamide] are over 10000 nM and over 10000 nM.
In the same order, the values of `CC(C)(C)C(O)CN1CCC(CC(=O)Nc2cc(F)cc(C(F)(F)F)c2)CC1` (stereo not drawn) [Compound 169, N-(3-fluoro-5-(trifluoromethyl)phenyl)-2-(1-(2-hydroxy-3,3-dimethylbutyl)piperidin-4-yl)acetamide] are 230 nM and under 300 nM.
As for `O=C(CCC(F)(F)F)NCCN1CCC(CNC(=O)c2cccc(OC(F)(F)F)c2)CC1` [Compound 311, N-((1-(2-(4,4,4-trifluorobutanamido)ethyl)piperidin-4-yl)methyl)-3-(trifluoromethoxy) benzamide], the values for the IC50 in test [1] and in test [2] were 330 nM and 2650 nM, respectively.
For the molecule `CC(C)(C)C(=O)NCCN1CCC(CNC(=O)/C=C/c2cc(F)cc(F)c2)CC1` [Compound 297, (E)-3-(3,5-difluorophenyl)-N-((1-(2-pivalamidoethyl)piperidin-4-yl)methyl)acrylamide], the IC50 in test [1] and in test [2] was over 10000 nM throughout.
`CCOC(=O)NC1(CN2CCC(CNC(=O)c3cc(C(F)(F)F)cc(C(F)(F)F)c3)CC2)CCCC1` [Compound 17, ethyl 1-((4-((3,5-bis(trifluoromethyl)benzamido)methyl)piperidin-1-yl)methyl)cyclopentylcarbamate]: the values for the IC50 in test [1] and in test [2] were 120 nM and under 300 nM, respectively.
On to `CC(C)(C)S(=O)(=O)NCCN1CCC(CNC(=O)c2cc(F)cc(Cl)c2)CC1` [Compound 565, 3-chloro-N-((1-(2-(1,1-dimethylethylsulfonamido)ethyl)piperidin-4-yl)methyl)-5-fluoro-benzamide], for which the values for the IC50 in test [1] and in test [2] were 220 nM and 310 nM, respectively.
Consider `CS(=O)(=O)NC1(CN2CCC(CNC(=O)c3cc(C(F)(F)F)cc(C(F)(F)F)c3)CC2)CC1` [Compound 357, N-((1-((1-(methylsulfonamido)cyclopropyl)methyl)piperidin-4-yl)methyl)-3,5-bis(trifluoromethyl)benzamide], for which the figures for the IC50 in test [1] and in test [2] were 1270 nM and 2150 nM, respectively.
As for `O=C(NCC1CCN(CCNC(=O)C2(C(F)(F)F)CCCC2)CC1)c1cc(C(F)(F)F)cc(C(F)(F)F)c1` [Compound 340, 3,5-bis(trifluoromethyl)-N-((1-(2-(1-(trifluoromethyl)cyclopentanecarbox-amido)ethyl)piperidin-4-yl)methyl) benzamide], the results for the IC50 in test [1] and in test [2] were 120 nM and under 300 nM, respectively.
In the same order, the values of `CC(C)S(=O)(=O)NCCN1CCC(CNC(=O)c2cc(C(F)(F)F)cc(C(F)(F)F)c2)CC1` [Compound 20, N-((1-(2-(1-methylethylsulfonamido)ethyl)piperidin-4-yl)methyl)-3,5-bis(trifluoromethyl)benzamide] are 400 nM and under 300 nM.
In the case of `Cc1cc(C)cc(C(=O)NCC2CCN(CCNC(=O)C(C)(C)C)CC2)c1` [Compound 295, 3,5-dimethyl-N-((1-(2-pivalamidoethyl)piperidin-4-yl)methyl)benzamide], the IC50 in test [1] was 1260 nM; in test [2], 1340 nM.
In the same order, the values of `CC(C)(C)N/C(CN1CCC(CNC(=O)c2cc(F)cc(C(F)(F)F)c2)CC1)=N\C#N` [Compound 510, (Z)-N-((1-(2-(tert-butylamino)-2-(cyanoimino)ethyl)piperidin-4-yl)methyl)-3-fluoro-5-(trifluoromethyl) benzamide] are over 10000 nM and 3970 nM.
As to `CC(C)S(=O)(=O)NCCN1CCC(CNC(=O)c2cc(F)cc(Cl)c2)CC1` [Compound 385, 3-chloro-5-fluoro-N-((1-(2-(1-methylethylsulfonamido)ethyl)piperidin-4-yl)methyl)benzamide], the IC50 in test [1] came out at 800 nM; in test [2] it was 580 nM.
Regarding `COc1cc(F)cc(C(=O)NCC2CCN(CC(=O)NCC(C)(C)F)CC2)c1` [Compound 557, 3-fluoro-N-((1-(2-(2-fluoro-2-methylpropylamino)-2-oxoethyl)piperidin-4-yl)methyl)-5-methoxy-benzamide], the IC50 came out at 1310 nM in test [1] and 3580 nM in test [2].
For the molecule `O=C(CN1CCC(CNC(=O)c2cccc(F)c2)CC1)NC1CCCC1` [Compound 535, N-((1-(2-(cyclopentylamino)-2-oxoethyl)piperidin-4-yl)methyl)-3-fluorobenzamide], the half-maximal inhibitory concentration (IC50) amounted to 2140 nM in test [1] and 3620 nM in test [2].
Turning to `COCC(COC)NC(=O)CN1CCC(CNC(=O)c2cc(F)cc(C(F)(F)F)c2)CC1` [Compound 354, N-((1-(2-(1,3-dimethoxypropan-2-ylamino)-2-oxoethyl)piperidin-4-yl)methyl)-3-fluoro-5-(trifluoromethyl) benzamide], the results for the IC50 in test [1] and in test [2] were 2140 nM and 1840 nM, respectively.
In the same order, the values of `NC1(C(=O)NCCN2CCC(CNC(=O)c3cc(F)cc(C(F)(F)F)c3)CC2)CCCCC1` [Compound 570, N-((1-(2-(1-aminocyclohexanecarboxamido)ethyl)piperidin-4-yl)methyl)-3-fluoro-5-(trifluoromethyl)benzamide] are 2360 nM and 2060 nM.
Take `Cc1cc(F)cc(C(=O)NCC2CCN(CCNS(=O)(=O)C(F)(F)F)CC2)c1` [Compound 331, 3-fluoro-5-methyl-N-((1-(2-(trifluoromethylsulfonamido)ethyl)piperidin-4-yl)methyl)benzamide]: the IC50 in test [1] and in test [2] was over 10000 nM in each case.
As for `CC(C)(F)C(=O)NCCN1CCC(CNC(=O)c2cc(C(F)(F)F)cc(C(F)(F)F)c2)CC1` [Compound 335, N-((1-(2-(2-fluoro-2-methylpropanamido)ethyl)piperidin-4-yl)methyl)-3,5-bis(trifluoromethyl) benzamide], the IC50 was determined as 310 nM in test [1] and 330 nM in test [2].
In the case of `COc1cc(F)cc(C(=O)NCC2CCN(CC(=O)NC(C)(C)C(F)(F)F)CC2)c1` [Compound 456, 3-fluoro-5-methoxy-N-((1-(2-oxo-2-(1,1,1-trifluoro-2-methylpropan-2-ylamino)ethyl)piperidin-4-yl)methyl)benzamide], the IC50 in test [1] was 20 nM; in test [2], under 300 nM.
With `CC1CCCN(CC(=O)N2CCC(CNC(=O)c3cc(F)cc(C(F)(F)F)c3)CC2)C1` (stereo not drawn) [Compound 268, 3-fluoro-N-((1-(2-(3-methylpiperidin-1-yl)acetyl)piperidin-4-yl)methyl)-5-(trifluoromethyl)benzamide], the IC50 in test [1] and in test [2] was over 10000 nM each time.
As to `CCCNC(=O)CN1CCC(CNC(=O)c2cccc(OC(F)(F)F)c2)CC1` [Compound 453, N-((1-(2-oxo-2-(proyplamino)ethyl)piperidin-4-yl)methyl)-3-(trifluoromethoxy)benzamide], the IC50 is over 10000 nM in test [1] and 8240 nM in test [2].
